Experiments:
[1] = system: MCF7 human xenograft model; assay: Tumor growth inhibition in MCF7 human xenograft model; format: in vivo, Balb/c female nude mouse; conditions: Formula (I) 30 mg/kg orally once a day 21 days, fulvestrant 5 mg/mouse subcutaneously once a week 3 weeks
Protocol: 1. Tumor Inoculating and Grouping
Estrogen was injected subcutaneously on one day before animal inoculation, twice a week, and 40 μg/20 μL for each time (estrogen specification: 4 mg/2 mL) until the experiment was ended. MCF7 cells resuspended by a serum-free medium were inoculated subcutaneously on the right rib of a Balb/c female nude mouse at 1.5×10^7+matrigel/0.2 mL (cell: matrigel=1:1). While the tumor growed to a volume mean value of 163 mm^3, it was grouped and administered. The group of the compound of Formula (I) was administered orally once a day at an dose of 30 mg/kg for 21 consecutive days; the group of the fulvestrant was administered subcutaneously once a week, 5 mg per animal, for 3 consecutive weeks; and while the compound of Formula (I) was used in combination with the fulvestrant, the same administration mode was used as while used alone.
2. Measurement and Experimental Indicator of Tumor
The tumor volume was measured twice a week with a vernier caliper, the long diameter and the short diameter of the tumor were measured, and its volume calculation formula is: volume=0.5×long diameter×short diameter^2. The relative tumor volume RTV and relative tumor volume increase ratio (T/C) were calculated according to measurement results. […]

MCF7 = assay: Cell proliferation detection using BrdU method (MCF7); format: cell-based; conditions: Homo sapiens, 48 hours, fixed-ratio combination 640:3.2 nM series, concentration axis = compound of Formula (I), read-out: Cytological activity on MCF7 in vitro (IC50)
Protocol: Experimental method: Cell proliferation detection using BrdU method (BrdU cell proliferation test kit, PerkinElmer Company) • 1. Reagent and compound preparation • 1.1. Preparation of 1-fold washing solution:
A washing solution with a mother liquor concentration of 25 times was diluted into 1-fold washing solution with ultrapure water. • 1.2. Preparation of 1-fold detection antibody solution:
A BrdU-Eu detection antibody with a mother liquor concentration of 200 times was diluted into 1-fold detection antibody solution with a detection antibody diluent. • 1.3. 100-fold BrdU labeling solution:
A BrdU stock solution with a mother liquor concentration of 1000 times was diluted into 100-fold BrdU labeling solution with a culture medium corresponding to cells. • 1.4. […]
MCF7 medium: MEM+10% FBS+1% bispecific antibody+10 μg/mL human recombinant insulin • 2. […] Then resuspended with a corresponding culture medium, counted and adjustment-inoculated in a 96-well plate, the MCF7 cells were inoculated according to 8000 cells/well/100 μL, placed and cultured in a 37° C. cell incubator, and after the cells were adhered to a wall, it was replaced with a serum-free medium. • 2.2. […]
• 2.3. […] 200 μL of time-resolved immunofluorescence induction solution was added per well, and incubated at the room temperature for 15 minutes, and the fluorescence value (Flu value) was detected by a microplate reader. • 3.

With `C[C@]12CC[C@@H]3c4ccc(O)cc4C[C@@H](CCCCCCCCC[S+]([O-])CCCC(F)(F)C(F)(F)F)[C@H]3[C@@H]1CC[C@@H]2O` (stereo partly drawn) [Fulvestrant, fulvestrant] the “TGI(%)” value ([1]; combination same modes) was 55.9%, the “Tumor volume at the end of administration” value ([1]; mean ± standard error, start about 163 mm^3, solvent control 468 ± 37) was 216 ± 44 mm^3 and the IC50 (MCF7) was 0.22 nM.
